Measured values taken from ChEMBL document CHEMBL3351731, “Synthesis and cytotoxicity evaluation of 4-amino-4-dehydroxylarctigenin derivatives in glucose-starved A549 tumor cells” (Bioorg Med Chem Lett, 2015).

Tests used:
[1] = tested on: A549; test: Cytotoxicity against human A549 cells after 4 days under normal conditions by MTT assay; assay type: cell-based; conditions: A549, 96 h
[2] = tested on: A549; test: Cytotoxicity against human A549 cells after 4 days under glucose-starved conditions by MTT assay; assay type: functional, cell-based; conditions: A549, 96 h

| Structure (SMILES) | IC50 [1] [µM] | IC50 [2] [µM] |
| --- | --- | --- |
| COc1cc(C[C@H]2C(=O)OC[C@@H]2Cc2ccc(OC)c(OC)c2)ccc1N | > 50 | 2.85 |
| COc1cc(C[C@H]2C(=O)OC[C@@H]2Cc2ccc(OC)c(OC)c2)ccc1NC(=O)c1ccccc1 | > 50 | > 50 |
| COc1cc(C[C@H]2C(=O)OC[C@@H]2Cc2ccc(OC)c(OC)c2)ccc1Nc1ccccc1 | > 50 | > 50 |
| COc1cc(C[C@H]2C(=O)OC[C@@H]2Cc2ccc(OC)c(OC)c2)ccc1Nc1ccc([N+](=O)[O-])cc1 | > 50 | 22.1 |
| CCC(=O)Nc1ccc(C[C@H]2C(=O)OC[C@@H]2Cc2ccc(OC)c(OC)c2)cc1OC | > 50 | > 50 |
| COc1cc(C[C@H]2C(=O)OC[C@@H]2Cc2ccc(OC)c(OC)c2)ccc1NC(=O)Cc1ccccc1 | > 50 | > 50 |
| COc1cc(C[C@H]2C(=O)OC[C@@H]2Cc2ccc(OC)c(OC)c2)ccc1O [ARCTIGENIN] | > 50 | 6.57 |
| COc1cccc(C[C@H]2C(=O)OC[C@@H]2Cc2ccc(OC)c(OC)c2)c1 | > 50 | > 50 |
| COc1cc(C[C@H]2C(=O)OC[C@@H]2Cc2ccc(OC)c(OC)c2)ccc1NC(C)=O | > 50 | > 50 |
| COc1cc(C[C@H]2C(=O)OC[C@@H]2Cc2ccc(OC)c(OC)c2)ccc1Nc1ccc(F)cc1 | > 50 | > 50 |
| COc1cc(C[C@H]2C(=O)OC[C@@H]2Cc2ccc(OC)c(OC)c2)ccc1NCc1ccccc1 | > 50 | > 50 |
| COc1ccc(Nc2ccc(C[C@H]3C(=O)OC[C@@H]3Cc3ccc(OC)c(OC)c3)cc2OC)cc1 | > 50 | > 50 |
